Data taken from US5696117A, “Benzoxazine antimicrobial agents” (Ortho Pharmaceutical Corporation, priority 1995, dated 1997).
Values after ≈ are worked out from the molar mass of the structure shown.

Legend:
Kinase A and SpoOF = target: T1, Kinase A and SpoOF (Bacillus subtilis, UniProt P16497); experiment: Autophosphorylation of Kinase A and Transphosphorylation of SpoOF Assay (HPK in vitro assay); type: biochemical; details: inhibition of KinA autophosphorylation / SpoOF transphosphorylation, inhibitor concentrations from 1 to 500 μM
T1 construct: made in house; host or cells: recombinant E. coli (overexpression)
T1 sequence (P16497 1-606): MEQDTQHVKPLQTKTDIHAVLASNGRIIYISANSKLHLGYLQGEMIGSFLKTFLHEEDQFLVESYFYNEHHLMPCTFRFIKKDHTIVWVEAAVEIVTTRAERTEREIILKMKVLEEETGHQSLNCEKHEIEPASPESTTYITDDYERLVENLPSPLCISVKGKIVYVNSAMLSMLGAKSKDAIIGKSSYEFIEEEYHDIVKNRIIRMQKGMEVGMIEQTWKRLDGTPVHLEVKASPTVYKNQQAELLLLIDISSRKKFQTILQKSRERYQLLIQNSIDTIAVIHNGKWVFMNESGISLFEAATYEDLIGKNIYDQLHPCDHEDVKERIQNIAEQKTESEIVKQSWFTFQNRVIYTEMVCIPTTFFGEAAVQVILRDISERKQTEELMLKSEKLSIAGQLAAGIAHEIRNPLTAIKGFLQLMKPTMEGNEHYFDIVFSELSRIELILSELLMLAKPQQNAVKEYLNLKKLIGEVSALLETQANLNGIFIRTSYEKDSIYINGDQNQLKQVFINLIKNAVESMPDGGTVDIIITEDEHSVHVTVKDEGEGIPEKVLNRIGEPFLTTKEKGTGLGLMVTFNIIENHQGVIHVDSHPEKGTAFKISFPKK
How it was run: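 Recombinant KinA and SpoOF (from E. coli) preincubated 15 min on ice with compound (1.0 mM solution in 5% DMSO, stock), then 10 min at room temperature with [32P]ATP. Labelled proteins resolved by SDS gel, quantified by phosphoimager; IC50 from 1–500 μM compound range.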

gram positive bacteria = experiment: MIC antimicrobial assay, microdilution broth method (NCCLS), gram positive bacteria; type: cell-based; details: range over the gram positive test organisms; 35° C., 16-20 hours
Procedure: (§1) 2. MIC Anitimicrobial Assay
(§2) The in vitro antimicrobial activity of the compounds was determined by the microdilution broth method following the test method from the National Committee for Laboratory Standards (NCCLS). This method is described in the NCCLS Document M7-A2, Vol. 10, No. 8 "Methods for Dilution Antimicrobial Susceptibility Test for Bacteria that Grow Aerobically--Second Edition."
(§3) In this method two-fold serial dilutions of drug in cation supplemented Mueller-Hinton broth are added to wells in microdilution trays. The test organisms are prepared by adjusting the turbidity of actively growing broth cultures so that the final concentration of test organism after it is added to the wells is approximately 5×10^4 CFUs/well.
(§4) Following inoculation of the microdilution trays, the trays are incubated at 35° C. for 16-20 hours and then read. […] The amount of growth in the wells containing the test compound is compared with the amount of growth in the growth-control wells (no test compound) used in each tray. As set forth in Tables 1 and 2, compounds of the present invention were tested against a variety of Gram+ and Gram- pathogenic bacteria resulting in a range of activities, from 1→128 μg/mL depending on the organism tested. The following test organisms were utilized in the assay:
Enterococcus faecalis ATCC 29212
Enterococcus faecalis oc 3041
Enterococcus faecium oc 2993
Methicillin resistant Staphylococcus aureus oc 2089
Methicillin resistant Staphylococcus aureus oc667
Staphylococcus aureus ATCC 29213
Staphylococcus aureus ATCC 6538
Staphylococcus epidermidis oc 2603

gram negative bacteria = experiment: MIC antimicrobial assay, microdilution broth method (NCCLS), gram negative bacteria; type: cell-based; details: range over the gram negative test organisms; 35° C., 16-20 hours
Procedure: as §1, §2, §3, §4
Escherichia coli oc 2530 ss
Klebsiella pneumoniae oc 1943
Pseudomonas aeroginosa oc 161
Pseudomonas aeroginosa ATCC 27853

| IC50 (Kinase A and SpoOF) [µM] | MIC (gram positive bacteria) [µg/mL] | MIC (gram negative bacteria) [µg/mL] | Compound |
| --- | --- | --- | --- |
| 24 | 2 (≈ 3.9 µM) |  | N=C(N)NCCc1ccc(OCCC2Oc3ccccc3N(Cc3cc(Cl)cc(Cl)c3)C2=O)cc1 (centres unmarked) [Compound 40, 4-(3,5-Dichlorobenzyl)-3,4-dihydro-2-{2-[4-(2-guanidinoethyl)phenoxy]ethyl}-3-oxo-2H-1,4-benzoxazine] |
| 46 | 4 to 16 (≈ 8.75 to 35 µM) |  | NCc1ccc(OCCC2Oc3ccccc3N(Cc3cc(Cl)cc(Cl)c3)C2=O)cc1 (centres unmarked) [Compound 39, 2-{2-[4-(2-Aminomethyl)phenoxy]ethyl}-4-(3,5-dichlorobenzyl)-3,4-dihydro-3-oxo-2H-1,4-benzoxazine] |
| 55 | 16 to 34 (≈ 43.4 to 92.3 µM) |  | CN1C(=O)C(CCOc2ccc(CCNC(=N)N)cc2)Oc2ccccc21 (centres unmarked) [Compound 60, 3,4-Dihydro-2-{2-[4-(2-guanidinoethyl)phenoxy]ethyl}-4-methyl-3-oxo-2H-1,4-benzoxazine] |
| 9 | 2 (≈ 3.9 µM) |  | N=C(N)NCCc1ccc(OCCC2Oc3ccc(Cl)cc3N(Cc3cccc(Cl)c3)C2=O)cc1 (centres unmarked) [Compound 50, 6-Chloro-4-(3-chlorobenzyl)-2-{2-[4-(2-guanidinoethyl)phenoxy]ethyl}-3,4-dihydro-3-oxo-2H-1,4-benzoxazine] |
| 17 | 2 (≈ 4.06 µM) |  | Cc1ccc2c(c1)OC(CCOc1ccc(CCNC(=N)N)cc1)C(=O)N2Cc1cccc(Cl)c1 (centres unmarked) [Compound 58, 4-(3-Chlorobenzyl)-2-{2-[4-(2-guanidinoethyl)phenoxy]ethyl}-3,4-dihydro-7-methyl-3-oxo-2H-1,4-benzoxazine] |
| 78 | 8 to 16 (≈ 18.3 to 36.6 µM) |  | NCCc1ccc(OCCC2Oc3ccccc3N(Cc3cccc(Cl)c3)C2=O)cc1 (centres unmarked) [Compound 79, 2-{2-[4-(2-Aminoethyl)phenoxy]ethyl}-4-(3-chlorobenzyl)-3,4-dihydro-3-oxo-2H-1,4-benzoxazine] |
| 55 | 8 to 32 (≈ 18.9 to 75.7 µM) |  | NCc1ccc(OCCC2Oc3ccccc3N(Cc3cccc(Cl)c3)C2=O)cc1 (centres unmarked) [Compound 2, 2-[2-[4-(Aminomethyl)phenoxy]ethyl]-4-(3-chlorobenzyl)-3,4-dihydro-3-oxo-2H-1,4-benzoxazine] |
| 74 | 8 to 16 (≈ 18.3 to 36.6 µM) |  | NCCc1cccc(OCCC2Oc3ccccc3N(Cc3ccccc3Cl)C2=O)c1 (centres unmarked) [Compound 16, 2-[2-[3-(2-Aminoethyl)phenoxy]ethyl]-4-(2-chlorobenzyl)-3,4-dihydro-3-oxo-2H-1,4-benzoxazine] |
| 17 | 1 to 2 (≈ 2.15 to 4.3 µM) |  | N=C(N)NCCc1ccc(OCCC2CN(Cc3cccc(Cl)c3)c3ccccc3O2)cc1 (centres unmarked) [Compound 23, 4-(3-Chlorobenzyl)-2-[2-[4-(2-guanidinoethyl)phenoxy]ethyl]-3,4-dihydro-2H-1,4-benzoxazine] |
| 47 | 8 to 16 (≈ 18.9 to 37.8 µM) |  | NCc1ccc(OCCC2Oc3ccccc3N(Cc3ccc(Cl)cc3)C2=O)cc1 (centres unmarked) [Compound 4, 2-[2-[4-(Aminomethyl)phenoxy]ethyl]-4-(4-chlorobenzyl)-3,4-dihydro-3-oxo-2H-1,4-benzoxazine] |
| 32 | 8 (≈ 17.7 µM) |  | NCCCc1ccc(OCCC2Oc3ccccc3N(Cc3cccc(Cl)c3)C2=O)cc1 (centres unmarked) [Compound 76, 2-{2-[4-(3-Aminopropyl)phenoxy]ethyl}-4-(3-chlorobenzyl)-3,4-dihydro-3-oxo-2H-1,4-benzoxazine] |
| 89 | 8 to 16 (≈ 18.3 to 36.6 µM) | 8 to 128 (≈ 18.3 to 293 µM) | NCCc1cccc(OCCC2Oc3ccccc3N(Cc3ccc(Cl)cc3)C2=O)c1 (centres unmarked) [Compound 8, 2-[2-[3-(2-Aminoethyl)phenoxy]ethyl]-4-(4-chlorobenzyl)-3,4-dihydro-3-oxo-2H-1,4-benzoxazine] |

More lines, now with the values behind:

| Compound | IC50 (Kinase A and SpoOF) [µM] | MIC (gram positive bacteria) [µg/mL] | MIC (gram negative bacteria) [µg/mL] |
| --- | --- | --- | --- |
| N=C(N)NCc1ccc(OCCC2CN(Cc3ccccc3Cl)c3ccccc3O2)cc1 (centres unmarked) [Compound 145, 2-[2-[4-(2-guanidinomethyl)phenoxy]ethyl]-4-(2-chlorobenzyl)-3,4-dihydro-2H-1,4-benzoxazine] | 23 | 1 to 2 (≈ 2.22 to 4.43 µM) |  |
| N=C(N)NCCc1ccc(OCCC2Oc3ccc([N+](=O)[O-])cc3N(Cc3ccccc3Cl)C2=O)cc1 (centres unmarked) [Compound 89, 3,4-Dihydro-2-{2-[4-(2-guanidinoethyl)-phenoxy]ethyl}-6-nitro-4-(2-chlorobenzyl)-3-oxo-2H-1,4-benzoxazine] | 17 | 1 to 4 (≈ 1.91 to 7.63 µM) |  |
| CCCCCN1C(=O)C(CCOc2ccc(CCNC(=N)N)cc2)Oc2ccccc21 (centres unmarked) [Compound 61, 3,4-Dihydro-2-{2-[4-(2-guanidinoethyl)phenoxy]ethyl}-3-oxo-4-pentyl-2H-1,4-benzoxazine] | 41 | 4 to 8 (≈ 9.42 to 18.8 µM) | 4 to 64 (≈ 9.42 to 151 µM) |
| N=C(N)NCCc1ccc(OCCC2Oc3ccccc3N(Cc3cccc(Cl)c3)C2=O)cc1 (centres unmarked) [Compound 72, 4-(3-Chlorobenzyl)-3,4-dihydro-2-{2-[4-(2-guanidinoethyl)phenoxy]ethyl}-3-oxo-2H-1,4-benzoxazine] | 30 | 2 to 4 (≈ 4.18 to 8.35 µM) |  |
| NCCc1cccc(OCCC2Oc3ccccc3N(Cc3cccc(Cl)c3)C2=O)c1 (centres unmarked) [Compound 70, 2-{2-[3-(2-Aminoethyl)phenoxy]ethyl}-4-(3-chlorobenzyl)-3,4-dihydro-3-oxo-2H-1,4-benzoxazine] | 65 | 8 to 16 (≈ 18.3 to 36.6 µM) |  |
| NCc1cccc(OCCC2Oc3ccccc3N(Cc3cccc(Cl)c3)C2=O)c1 (centres unmarked) [Compound 74, 2-{2-[3-(Aminomethyl)phenoxy]ethyl}-4-(3-chlorobenzyl)-3,4-dihydro-3-oxo-2H-1,4-benzoxazine] | 81 | 8 to 16 (≈ 18.9 to 37.8 µM) |  |
| NCCc1cccc(OCCC2Oc3ccccc3N(Cc3cc(Cl)cc(Cl)c3)C2=O)c1 (centres unmarked) [Compound 64, 2-{2-[3-(2-Aminoethyl)phenoxy]ethyl}-4-(3,5-dichlorobenzyl)-3,4-dihydro-3-oxo-2H-1,4-benzoxazine] | 32 | 4 to 8 (≈ 8.49 to 17 µM) |  |
| N=C(N)NCCc1ccc(OCCC2Oc3ccc(N)cc3N(Cc3cccc(Cl)c3)C2=O)cc1 (centres unmarked) [Compound 92, 6-Amino-4-(3-chlorobenzyl)-3,4-dihydro-2-{2-[4-(2-guanidinoethyl)phenoxy]ethyl}-3-oxo-2H-1,4-benzoxazine] | 34 | 2 to 16 (≈ 4.05 to 32.4 µM) |  |
| N=C(N)NCCc1ccc(OCCC2CN(Cc3ccc(Cl)cc3)c3ccccc3O2)cc1 (centres unmarked) [Compound 22, 4-(4-Chlorobenzyl)-2-[2-[4-(2-guanidinoethyl)phenoxy]ethyl]-3,4-dihydro-2H-1,4-benzoxazine] | 41 | 2 to 4 (≈ 4.3 to 8.6 µM) |  |
| N=C(N)NCCc1ccc(OCCC2Oc3ccccc3N(Cc3ccc(Cl)cc3)C2=O)cc1 (centres unmarked) [Compound 26, 4-(4-Chlorobenzyl)-3,4-dihydro-2-[2-[4-(2-guanidinoethyl)phenoxy]ethyl]-3-oxo-2H-1,4-benzoxazine] | 68 | 2 to 4 (≈ 4.18 to 8.35 µM) |  |
| N=C(N)NCc1ccc(OCCC2Oc3ccccc3N(Cc3cccc(Cl)c3)C2=O)cc1 (centres unmarked) [Compound 78, 4-(3-Chlorobenzyl)-3,4-dihydro-2-{2-[4-(guanidinylmethyl)phenoxy]ethyl}-3-oxo-2H-1,4-benzoxazine] | 32 | 1 to 4 (≈ 2.15 to 8.6 µM) |  |
| NCCc1ccc(OCCC2Oc3ccccc3N(Cc3ccc(Cl)cc3)C2=O)cc1 (centres unmarked) [Compound 6, 2-[2-[4-(2-Aminoethyl)phenoxy]ethyl]-4-(4-chlorobenzyl)-3,4-dihydro-3-oxo-2H-1,4-benzoxazine] | 61 | 1 to 2 (≈ 2.29 to 4.58 µM) | 2 to 64 (≈ 4.58 to 146 µM) |
| N=C(N)NCc1ccc(OCCC2Oc3ccccc3N(Cc3ccccc3Cl)C2=O)cc1 (centres unmarked) [Compound 19, 4-(2-Chlorobenzyl)-2-[2-[4-(guanidinomethyl)phenoxy]ethyl]-3,4-dihydro-3-oxo-2H-1,4-benzoxazine] | 16 | 1 to 4 (≈ 2.15 to 8.6 µM) |  |
